# Measured values: patent US11192852B2, “Pyrazolyl and pyrimidinyl tricyclic enones as antioxidant inflammation modulators” (REATA PHARMACEUTICALS, INC., priority 2010, dated 2021)
# What was measured:
# [1] = tested on: IFNγ-induced NO production in RAW264.7 mouse macrophages; experiment: Suppression of IFNγ-induced nitric oxide production (Griess reagent); assay type: cell-based; settings: 2 h pre-treatment (0-200 nM), then IFNγ 24 h, normalized to cell viability
# Description: Nitric Oxide Production and Cell Viability.
# [2] = tested on: Nrf2 transcription factor (human NQO1-ARE reporter) in HuH7 cells; experiment: NQO1-ARE Luciferase Reporter Assay; assay type: cell-based; settings: Huh-7, 62.5 nM, 18 h, fold over DMSO vehicle, Firefly normalized to Renilla
# Description: NQO1-ARE Luciferase Reporter Assay.
# This assay allows for quantitative assessment of the endogenous activity of the Nrf2 transcription factor in cultured mammalian cells. Expression of Firefly luciferase from NQO1-ARE luciferase reporter plasmid is controlled by binding of Nrf2 to a specific enhancer sequence corresponding to the antioxidant response element (ARE) that was identified in the promoter region of the human NADPH:quinone oxidoreductase 1 (NQO1) gene (Xie et al., 1995). The plasmid was constructed by inserting a sequence:
# 5′-[…]-3′ (SEQ ID NO:1) encompassing the human NQO1-ARE into the pLuc-MCS vector using HindIII/XhoI cloning sites (GenScript Corp., Piscataway, N.J.). The assay is performed in HuH7 cells maintained in DMEM (Invitrogen) supplemented with 10% FBS and 100 U/ml (each) of penicillin and streptomycin. For the assay, cells are plated in 96-well plates at 17,000 cells per well. Twenty four hours later, the cells are co-transfected with 50 ng each of NQO1-ARE reporter plasmid and pRL-TK plasmid using Lipofectamine 2000 transfection reagent (Invitrogen). pRL-TK plasmid constitutively expresses Renilla luciferase and is used as an internal control for normalization of transfection levels. Thirty hours after transfection, the cells are treated with compounds (at concentrations ranging from 0 to 1 μM) for eighteen hours. Firefly and Renilla luciferase activity is assayed by Dual-Glo Luciferase Assay (Promega Corp., Madison, Wis.), the luminescence signal is measured on an L-Max II luminometer (Molecular Devices). Firefly luciferase activity is normalized to the Renilla activity, and fold induction over a vehicle control (DMSO) of normalized Firefly activity is calculated. The fold induction at 62.5 nM concentration is used for comparing relative potencies of compounds to induce Nrf2 transcriptional activity. See Xie T, Belinsky M, Xu Y, Jaiswal A K. ARE- and TRE-mediated regulation of gene expression. Response to xenobiotics and antioxidants. J Biol Chem. (1995) 270(12):6894-6900, which is incorporated herein by reference.
# [3] = Mus musculus, RAW264.7, RAW264.7 cells
Compound,"IC50 [1, 3] [nM]",fold induction at 0.0625 µM [2],IC50 ([1]; RAW264.7 cells) [nM]
Cc1ncc2c(n1)[C@@]1(C)C=C(C#N)C(=O)[C@@H](C)[C@@H]1CC2 [TX63554],42,1.9,–
Cn1nc2c(c1Cc1ccccc1)CC[C@H]1C(C)(C)C(=O)C(C#N)=C[C@]21C [TX63550],54,1.8,–
Cn1nc2c(c1-c1ccccc1)CC[C@H]1C(C)(C)C(=O)C(C#N)=C[C@]21C [TX63465],18.3,4.8,–
Cn1nc2c(c1-c1cccnc1)CC[C@H]1C(C)(C)C(=O)C(C#N)=C[C@]21C [TX63503],17,5.5,–
Cn1nc2c(c1NC(=O)c1ccccc1)CC[C@H]1C(C)(C)C(=O)C(C#N)=C[C@]21C [TX63531],> 200,1.1,–
Cc1cccc(-c2c3c(nn2C)[C@@]2(C)C=C(C#N)C(=O)C(C)(C)[C@@H]2CC3)c1 [TX63512],25,1.4,–
CC1(C)C(=O)C(C#N)=C[C@]2(C)c3nc(-c4ccccc4)ncc3CC[C@@H]12 [TX63552],24,1.9,–
Cc1nc2c(c(=O)n1C)CC[C@H]1C(C)(C)C(=O)C(C#N)=C[C@]21C [TX63584],> 200,3.1,–
C[C@@H]1C(=O)C(C#N)=C[C@]2(C)c3nc(-c4ccccc4)ncc3CC[C@@H]12 [TX63569],9.8,2,–
Cc1ncc2c(n1)[C@@]1(C)C=C(C#N)C(=O)C(C)(C)[C@@H]1CC2 [TX63468],64,2,–
Cn1nc2c(c1Cl)CC[C@H]1C(C)(C)C(=O)C(C#N)=C[C@]21C [TX63604],49,3.4,–
COc1cccc(-c2c3c(nn2C)[C@@]2(C)C=C(C#N)C(=O)C(C)(C)[C@@H]2CC3)c1 [TX63513],25,2.9,–
CC1(C)C(=O)C(C#N)=C[C@]2(C)c3nc(-c4cccnc4)ncc3CC[C@@H]12 [TX63586],22,2.9,–
CC[C@@H]1C(=O)C(C#N)=C[C@]2(C)c3nn(C)c(-c4ccccc4)c3CC[C@@H]12 [TX63599],14,3.2,–
Cn1nc2c(c1-c1cccc(F)c1)CC[C@H]1C(C)(C)C(=O)C(C#N)=C[C@]21C [TX63506],25,3.2,–
CN1C(=O)C(C#N)=C[C@]2(C)c3nn(C)c(-c4ccccc4)c3CC[C@@H]12 [TX63568],> 200,1.3,–
Cn1nc2c(c1-c1ccccc1)CC[C@H]1CC(=O)C(C#N)=C[C@]21C [TX63540],66.8,1.6,–
Cn1cc2c(n1)[C@@]1(C)C=C(C#N)C(=O)C(C)(C)[C@@H]1CC2 [TX63341],–,1.7,70
CC[C@@H]1C(=O)C(C#N)=C[C@]2(C)c3nc(-c4ccccc4)ncc3CC[C@@H]12 [TX63598],12,1.9,–
Cn1nc2c(c1-c1ccccc1F)CC[C@H]1C(C)(C)C(=O)C(C#N)=C[C@]21C [TX63519],21,2.5,–
